Measurements from patent publication US20170035894A1, “DRUG DELIVERY CONJUGATES FOR TREATING RESISTANT CANCER AND FOR USE IN COMBINATION THERAPY” (ENDOCYTE, INC., priority 2014, published 2017).

Columns and labels:
HepG2 = experiment: In vitro activity against cancer cell lines, 3H-thymidine incorporation; type: cell-based, human; conditions: FR expression −; evaluated from 0.1-100 nM
Protocol: (§1) METHOD. In vitro activity against various cancer cell lines. IC50 values were generated for various cell lines. Cells were heavily seeded in 24-well Falcon plates and allowed to form nearly confluent monolayers overnight. Thirty minutes prior to the addition of the test compound, spent medium was aspirated from all wells and replaced with fresh folate-deficient RPMI medium (FFRPMI). A subset of wells were designated to receive media containing 100 μM folic acid. The cells in the designated wells were used to determine the targeting specificity. Without being bound by theory it is believed herein that the cytotoxic activity produced by test compounds in the presence of excess folic acid, i.e. where there is competition for FR binding, corresponds to the portion of the total activity that is unrelated to FR-specific delivery. Following one rinse with 1 mL of fresh FFRPMI containing 10% heat-inactivated fetal calf serum, each well received 1 mL of medium containing increasing concentrations of test compound (4 wells per sample) in the presence or absence of 100 μM free folic acid as indicated. Treated cells were pulsed for 2 h at 37° C., rinsed 4 times with 0.5 mL of media, and then chased in 1 mL of fresh medium up to 70 h. Spent medium was aspirated from all wells and replaced with fresh medium containing 5 μCi/mL ^3H-thymidine. Following a further 2 h 37° C. incubation, cells were washed 3 times with 0.5 mL of PBS and then treated with 0.5 mL of ice-cold 5% trichloroacetic acid per well. After 15 min, the trichloroacetic acid was aspirated and the cell material solubilized by the addition of 0.5 mL of 0.25 N sodium hydroxide for 15 min. A 450 μL aliquot of each solubilized sample was transferred to a scintillation vial containing 3 mL of Ecolume scintillation cocktail and then counted in a liquid scintillation counter. Final results are expressed as the percentage of ^3H-thymidine incorporation relative to untreated controls.

MDA-MB-231 = experiment: as above; type: cell-based, human
Protocol: as §1

H23 = experiment: as above; type: cell-based, human; conditions: FR expression −; evaluated from 0.1-100 nM
Protocol: as §1

LNCaP = experiment: as above; type: cell-based, human; conditions: FR expression −
Protocol: as §1

AN3CA = experiment: as above; type: cell-based, human; conditions: FR expression −; evaluated from 0.1-100 nM
Protocol: as §1

NCl/ADR-RES-Cl2 = experiment: as above; type: cell-based, human
Protocol: as §1

A549 = experiment: as above; type: cell-based, human; conditions: FR expression −; evaluated from 0.1-100 nM
Protocol: as §1

IGROV1 = experiment: as above; type: cell-based, human
Protocol: as §1

MDA-MB-231 tumors = experiment: TNBC Tumor Assay, s.c. MDA-MB-231 xenografts; type: in vivo, nu/nu mice
Text: METHOD. TNBC Tumor Assay. Triple negative breast cancer (TNBC) is a subtype characterized by lack of gene expression for estrogen, progesterone and Her2/neu. TNBC is difficult to treat, and the resulting death rate in patients is reportedly disproportionately higher than for any other subtype of breast cancer. A TNBC xenograft model was generated in an analogous way to the KB and M109 models described herein by implanting MDA-MB-231 breast cancer cells in nu/nu mice. Dosing was initiated when the s.c. tumors have an average volume between 110-150 (generally 130) mm^3 (t0), typically 17 days post tumor inoculation (PTI). Test animals (5/group) were injected i.v., generally three times a week (TIW), for 2-3 weeks with varying doses, such as with 1 μmol/kg to 5 μmol/kg, of the drug delivery conjugate or with an equivalent dose volume of PBS (control), unless otherwise indicated. Dosing solutions were prepared fresh each day in PBS and administered through the lateral tail vein of the mice.

[1] = tested on: M109 (lung carcinoma) tumors; experiment: Inhibition of tumor growth, s.c. M109 tumors; type: in vivo, nu/nu mice
Protocol: METHOD. Inhibition of Tumor Growth in Mice. Four to seven week-old mice (Balb/c or nu/nu strains) were purchased from Harlan Sprague Dawley, Inc. (Indianapolis, Ind.). Normal rodent chow contains a high concentration of folic acid (6 mg/kg chow); accordingly, test animals were maintained on a folate-free diet (Harlan diet #TD00434) for about 1 week before tumor implantation to achieve serum folate concentrations close to the range of normal human serum, and during the Method. For tumor cell inoculation, 1×10^6 M109 cells (a syngeneic lung carcinoma) in Balb/c strain, or 1×10^6 KB cells in nu/nu strain, in 100 μL were injected in the subcutis of the dorsal medial area (right axilla). Tumors were measured in two perpendicular directions every 2-3 days using a caliper, and their volumes were calculated as 0.5×L×W^2, where L=measurement of longest axis in mm and W=measurement of axis perpendicular to L in mm.
Test animals (5/group) ere injected i.v., generally three times a week TIW), for 3 weeks with varying doses, such as with 1 μmol/kg to 5 μmol/kg, of the drug delivery conjugate or with an equivalent dose volume of PBS (control), unless otherwise indicated. Dosing solutions were prepared fresh each day in PBS and administered through the lateral tail vein of the mice.

[2] = tested on: KB-CR2000 (cisplatin resistant) tumors; experiment: Cisplatin-resistant KB-CR2000 tumor model; type: in vivo, mice
Text: METHOD. Human cisplatin-resistant cell line. […] In addition, regrowth of the tumor was only observed in 1/5 test animals.

ST040 tumors = experiment: Endometrial PDX tumor model; type: in vivo, Balb/c nu/nu mice; conditions: combined with Paclitaxel 15 mg/kg
Protocol: Female Balb/c nu/nu mice were fed ad libitum with folate-deficient chow (Harlan diet #TD01013) for the duration of the experiment. Primary human Endometrial model ST040, TNBC models 5T502 and ST738 and Ovarian model ST024 fragments (2-4 mm in diameter) were inoculated subcutaneously at the right flank of each mouse. Mice were randomized into 6 experimental groups of 5 or 3 mice each and test articles were injected through the lateral tail vein under sterile conditions in a volume of 200 μL of phosphate-buffered saline (PBS).
Growth of each s.c. tumor was followed by measuring the tumor two times per week until a volume of 1200 mm^3 was reached. Tumors were measured in two perpendicular directions using Vernier calipers, and their volumes were calculated as 0.5×L×W^2, where L=measurement of longest axis in mm and W=measurement of axis perpendicular to L in mm.

[3] = 2 μmol/kg i.v. TIW 2 weeks, nearly 70 day observation period
[4] = EC1456 1.5 μmol/kg two times a week for two weeks
[5] = EC1456 3 μmol/kg once a week for two weeks

CCCC(=O)OCN(C(=O)[C@@H](NC(=O)[C@H]1CCCCN1C)C(C)CC)[C@H](C[C@@H](OC(C)=O)c1nc(C(=O)N[C@@H](Cc2ccc(O)cc2)C[C@H](C)C(=O)NNC(=O)OCCSSC[C@@H](NC(=O)[C@H](CCC(=O)NC[C@H](O)[C@@H](O)[C@H](O)[C@H](O)CO)NC(=O)[C@@H](CCC(=O)O)NC(=O)[C@H](CCC(=O)NC[C@H](O)[C@@H](O)[C@H](O)[C@H](O)CO)NC(=O)[C@@H](CCC(=O)O)NC(=O)[C@H](CCC(=O)NC[C@H](O)[C@@H](O)[C@H](O)[C@H](O)CO)NC(=O)CC[C@@H](NC(=O)c2ccc(NCc3cnc4nc(N)[nH]c(=O)c4n3)cc2)C(=O)O)C(=O)O)cs1)C(C)C (stereo in doubt) [EC1456]
Activity (IC50) (HepG2): Inactive
IC50 (MDA-MB-231; FR expression +): 0.47 nM
Competable up to 100 nM (MDA-MB-231; folic acid competition): Yes
Activity (IC50) (H23): Inactive
IC50 (LNCaP): ~850 nM
Activity (IC50) (AN3CA): Inactive
IC50 (NCl/ADR-RES-Cl2; FR expression ++): 1.4 nM
Competable up to 100 nM (NCl/ADR-RES-Cl2; folic acid competition): Yes
Activity (IC50) (A549): Inactive (a)
IC50 (IGROV1; FR expression +): 0.72 nM
Competable up to 100 nM (IGROV1; folic acid competition): Yes
tumor regrowth (MDA-MB-231 tumors; 2 μmol/kg i.v. TIW 2 weeks, observation window nearly 135 days): regrowth did not occur
complete responses (tumor volume reduced to zero) (MDA-MB-231 tumors; 2 μmol/kg intravenous, three times per week, 2 consecutive weeks): 4 of 5
efficacy of co-administration of EC1456 and cisplatin ([1]; EC1456 2 μmol/kg TIW×2 + cisplatin 3 mg/kg BIW×2): enhanced technical effect over both monotherapies
efficacy of EC1456 alone compared to cisplatin ([1]; EC1456 2 μmol/kg TIW×2 vs cisplatin 3 mg/kg BIW×2): improved efficacy over cisplatin
regrowth of the tumor, test animals [2, 3]: 1/5
test animals cured (no regrowth) [2, 3]: 4/5
CRs ([2]; 2 μmol/kg i.v. three times per week, 2 weeks): 5/5
animal exhibiting cure (ST040 tumors; [4]): 1 animal
animals exhibiting PRs (ST040 tumors; [4]): 3 animals
animals exhibiting PR's (ST040 tumors; [5]): 2 animals
animals exhibiting stable disease (ST040 tumors; [5]): 3 animals
